# Assay results published in patent US6225260A, “Quaternary ammonium salts of a sulfonylurea” (Lonza Inc., priority 1999, dated 2001).
# What was measured:
# [1] = Solubility in epoxidized soybean oil, methyl caprylate/caprate, and cottonseed oil
# [2] = Aging / storage stability: relative decomposition of the sulfonylurea by HPLC; format: physicochemical; conditions: 10080 min
# Procedure: Into 7.8 g of epoxidized soybean oil (ESBO) was added with stirring: 1.18 g methyl 3-[[[[(4-methoxy-6-methyl-1,3,5-triazin-2-yl)amino]carbonyl]amino]sulfonyl]-2-thiophenecarboxylate tech (98.1%), 1.31 g of anhydrous diisobutylphenoxy ethoxyethyl dimethylbenzyl ammonium chloride in H2 O (Hyamine 1622™), 0.11 g Ca(OH)2, and 0.03 g calcium acetate.
# In a vial was vortexed the following: 0.214 g methyl 2-[[[[[(4,6-dimethoxy-2-pyrimidinyl)amino]carbonyl]amino]sulfonyl]methyl]benzoate (98.3%),0.192 g of a 25% aqueous solution of tetramethyl ammonium hydroxide, and 4.32 g of water to produce the sulfonylurea quaternary salt.
# Aspergillus niger = conditions: 6 days, Czapek solution agar
# Text: A. niger ATCC #16404 was contacted with each sulfonylurea salt for 6 days in a Czapek solution agar.
# [3] = tested on: Setaria faberi (Giant Foxtail); test: Herbicidal efficacy against giant foxtail (green fresh weight, percent control); format: in vivo
# Procedure: (§1) Aqueous solutions of the benzethonium salts of each sulfonylurea were prepared with and without 0.25% by weight of the nonionic surfactant polyoxyethylene (20) monolaurate (Tween 20®, trademark of ICI), based upon 100% total weight of aqueous solution. The aqueous solutions were sprayed onto giant foxtail (Setaria faberi) and large crabgrass (Digitaria sanguinalis) with a spray volume of 187 L/ha (liters/hectare). The active amount of each salt applied in grams/hectare (g/ha) is shown in Table 2 with respect to giant foxtail and Table 3 with respect to large crabgrass. The plants were evaluated two weeks after treatment with the aqueous solution by obtaining their green fresh weights and comparing these weights to an untreated control treatment to compute percent control values. Six replications were made of each treatment. All data were analyzed using a Fisher's Least Significant Difference (L.S.D.) Test at the 0.05 level.
# (§2) Aqueous solutions were prepared with 75% concentrated, water-dispersible granules (75 DF) of nicosulfuron and rimsulfuron available as Accent® herbicide and Titus® herbicide (trademarks of DuPont) with or without 0.25% by weight of Tween 20®. These aqueous solutions were tested against giant foxtail (Setaria faberi) and large crabgrass (Digitaria sanguinalis) as described in Example 4.
# [4] = tested on: Digitaria sanguinalis (Large Crabgrass); test: Herbicidal efficacy against large crabgrass (green fresh weight, percent control); format: in vivo
# Procedure: as §1, §2
# physchem = conditions: water, pH 7, water
# [5] = Aging in deionized water: relative degradation of the sulfonylurea by HPLC; format: physicochemical; conditions: saturated in deionized water (500 ppm), 25° C. for 30 days
# Procedure: Deionized water (5 g) was saturated with 2-[[[[(4,6-dimethoxy-2-pyrimidinyl)amino]carbonyl]amino]sulfonyl]-N,N-dimethyl-3-pyridinecarboxamide tech (500 ppm) and aged at 25° C. for 30 days.
# [6] = Hydrolytic stability in aqueous solution by HPLC (storage at room temperature for 36 days); format: physicochemical; conditions: 100 ppm in deionized water, after 36 days, read-out: percentage of material present after storage
# Procedure: Aqueous solutions containing 100 ppm of nicosulfuron or its benzethonium salt were prepared with deionized water and stored at room temperature for 36 days. The solutions were analyzed by HPLC with an Inersil ODS2 column and an ultraviolet detector at a wavelength of 254 nm. The mobile phase through the column consisted of acetonitrile and water at a 1:1 volume ratio. The flow rate through the column was 1 ml/min.
structure (smiles),measurement,setting,value
CCCCCCCCCCCC[N+](CCCCCCCCCCCC)(CCCCCCCCCCCC)CCCCCCCCCCCC.COc1cc(OC)nc(NC(=O)[N-]S(=O)(=O)c2c(-c3nnn(C)n3)cnn2C)n1 [B],solubility in organic solvents,[1],more than 50%
same,relative degradation,"[2]; 50% solutions in epoxidized soybean oil, methyl caprylate/caprate, and cottonseed oil, 1 week at 54° C.",20-45%
CC(C)(C)CC(C)(C)c1ccc(OCCOCC[N+](C)(C)Cc2ccccc2)cc1.COC(=O)c1ccccc1S(=O)(=O)[N-]C(=O)Nc1nc(C)nc(OC)n1 [Benzethonium salt of metsulfuron-methyl],Minimum Effective Concentration,Aspergillus niger,300-1000 ppm
CC(C)(C)CC(C)(C)c1ccc(OCCOCC[N+](C)(C)Cc2ccccc2)cc1.COc1cc(OC)nc(NC(=O)[N-]S(=O)(=O)c2ncccc2C(=O)N(C)C)n1 [Benzethonium salt of nicosulfuron],% Control,"[3]; 6 g/ha, 0.25% Tween 20, two weeks after treatment",97%
same,% Control,"[3]; 6 g/ha, no nonionic surfactant, two weeks after treatment",39%
same,Minimum Effective Concentration,Aspergillus niger,100-300 ppm
same,% Control,"[4]; 20 g/ha, 0.25% Tween 20, two weeks after treatment",94%
same,% Control,"[4]; 20 g/ha, no nonionic surfactant, two weeks after treatment",34%
CC(C)(C)CC(C)(C)c1ccc(OCCOCC[N+](C)(C)Cc2ccccc2)cc1.CCS(=O)(=O)c1cccnc1S(=O)(=O)[N-]C(=O)Nc1nc(OC)cc(OC)n1 [Benzethonium salt of rimsulfuron],% Control,"[3]; 3 g/ha, 0.25% Tween 20, two weeks after treatment",95%
same,% Control,"[3]; 3 g/ha, no nonionic surfactant, two weeks after treatment",25%
same,Minimum Effective Concentration,Aspergillus niger,100-300 ppm
same,% Control,"[4]; 10 g/ha, 0.25% Tween 20, two weeks after treatment",94%
same,% Control,"[4]; 10 g/ha, no nonionic surfactant, two weeks after treatment",58%
COC(=O)c1ccccc1CS(=O)(=O)[N-]C(=O)Nc1nc(OC)cc(OC)n1.C[N+](C)(C)C [C],degradation of the sulfonylurea,"[2]; aqueous solution, one week at 54° C.",52%
"COc1cc(OC)nc(NC(=O)NS(=O)(=O)c2ncccc2C(=O)N(C)C)n1 [nicosulfuron, 2-[[[[(4,6-dimethoxy-2-pyrimidinyl)amino]carbonyl]amino]suflonyl]-N,N-dimethyl-3-pyridinecarboxamide]",solubility,physchem,12 mg/mL
same,degraded at 720 h,[5],90%
same,remaining at 864 h,[6],7%
